Laboratory results reported in the NIST ThermoML archive (doi:10.1016/j.jct.2015.01.005).
Where “and” joins values, the source holds several entries; their conditions need not be identical. Identical values can stand only once. Numbers after ± are expanded uncertainties.

Experiments:
[1] = for molar entropy: 101.33 kPa, Small (less than 1 g) adiabatic calorimetry; for vapor or sublimation pressure: Calculated from knudsen effusion weight loss; for Triple point temperature: DTA
[2] = molar heat capacity at constant pressure; conditions: 101.33 kPa, Crystal 2, Small (less than 1 g) adiabatic calorimetry

O[C@@H]1[C@@H](O)[C@@H]2OC[C@@H](O2)[C@H]1O [1,6-anhydro-β-D-glucopyranose]
[1]
Conditions | molar entropy [J/K/mol] | vapor or sublimation pressure
5 K, Crystal 2 | 0.145 ± 0.026 | –
10 K, Crystal 2 | 0.302 ± 0.029 | –
15 K, Crystal 2 | 1.222 ± 0.047 | –
20 K, Crystal 2 | 2.884 ± 0.072 | –
25 K, Crystal 2 | 5.162 ± 0.095 | –
30 K, Crystal 2 | 7.89 ± 0.17 | –
35 K, Crystal 2 | 10.92 ± 0.19 | –
40 K, Crystal 2 | 14.15 ± 0.21 | –
45 K, Crystal 2 | 17.49 ± 0.24 | –
50 K, Crystal 2 | 20.92 ± 0.26 | –
60 K, Crystal 2 | 27.86 ± 0.32 | –
70 K, Crystal 2 | 34.84 ± 0.38 | –
80 K, Crystal 2 | 41.77 ± 0.42 | –
90 K, Crystal 2 | 48.63 ± 0.52 | –
100 K, Crystal 2 | 55.42 ± 0.57 | –
110 K, Crystal 2 | 62.19 ± 0.62 | –
120 K, Crystal 2 | 68.89 ± 0.67 | –
130 K, Crystal 2 | 75.51 ± 0.72 | –
140 K, Crystal 2 | 82.05 ± 0.76 | –
150 K, Crystal 2 | 88.52 ± 0.81 | –
160 K, Crystal 2 | 94.93 ± 0.86 | –
170 K, Crystal 2 | 101.3 ± 0.9 | –
180 K, Crystal 2 | 107.6 ± 0.9 | –
190 K, Crystal 2 | 113.9 ± 1 | –
200 K, Crystal 2 | 120.2 ± 1 | –
210 K, Crystal 2 | 126.4 ± 1.1 | –
220 K, Crystal 2 | 132.6 ± 1.1 | –
230 K, Crystal 2 | 138.9 ± 1.2 | –
240 K, Crystal 2 | 145.1 ± 1.2 | –
250 K, Crystal 2 | 151.3 ± 1.2 | –
260 K, Crystal 2 | 157.5 ± 1.3 | –
270 K, Crystal 2 | 163.7 ± 1.4 | –
280 K, Crystal 2 | 170 ± 1.4 | –
290 K, Crystal 2 | 176.3 ± 1.4 | –
298.15 K, Crystal 2 | 181.4 ± 1.4 | –
300 K, Crystal 2 | 182.5 ± 1.4 | –
310 K, Crystal 2 | 188.8 ± 1.6 | –
320 K, Crystal 2 | 195.1 ± 1.6 | –
330 K, Crystal 2 | 201.5 ± 1.6 | –
340 K, Crystal 2 | 207.9 ± 1.6 | –
350 K, Crystal 2 | 214.4 ± 1.8 | –
353.55 K, Crystal 2 | – | 2.63e-05 ± 1.7e-06 kPa
353.56 K, Crystal 2 | – | 2.36e-05 ± 1.5e-06 kPa
358.59 K, Crystal 2 | – | 4.61e-05 ± 2.9e-06 kPa
360 K, Crystal 2 | 220.9 ± 1.8 | –
363.6 K, Crystal 2 | – | 8.11e-05 ± 5.1e-06 kPa
368.61 K, Crystal 2 | – | 0.00014 ± 9e-06 kPa
368.62 K, Crystal 2 | – | 0.000141 ± 9e-06 kPa and 0.00014 ± 9e-06 kPa
370 K, Crystal 2 | 227.4 ± 1.8 | –
373.63 K, Crystal 2 | – | 0.000248 ± 1.5e-05 kPa and 0.000254 ± 1.6e-05 kPa
373.64 K, Crystal 2 | – | 0.000243 ± 1.5e-05 kPa
378.63 K, Crystal 2 | – | 0.00041 ± 2.6e-05 kPa
378.64 K, Crystal 2 | – | 0.000426 ± 2.7e-05 kPa
378.65 K, Crystal 2 | – | 0.000416 ± 2.6e-05 kPa
380 K, Crystal 2 | 234.1 ± 1.9 | –
383.65 K, Crystal 2 | – | 0.000688 ± 4.2e-05 kPa and 0.000723 ± 4.5e-05 kPa
383.66 K, Crystal 2 | – | 0.000727 ± 4.5e-05 kPa and 0.000742 ± 4.6e-05 kPa
384 K, Crystal 1 | 301.8 ± 2.6 | –
384 K, Crystal 2 | 236.7 ± 1.9 | –

Conditions | Triple point temperature [K] | molar heat capacity at constant pressure [J/K/mol]
[1], Crystal 1 | 454 ± 1 | –
[1], Crystal 2 | 384 ± 1 | –
[2], 5 K | – | 0.138 ± 0.018
[2], 10 K | – | 1.118 ± 0.032
[2], 15 K | – | 3.898 ± 0.065
[2], 20 K | – | 7.99 ± 0.091
[2], 25 K | – | 12.65 ± 0.12
[2], 30 K | – | 17.41 ± 0.15
[2], 35 K | – | 22.01 ± 0.17
[2], 40 K | – | 26.36 ± 0.2
[2], 45 K | – | 30.52 ± 0.22
[2], 50 K | – | 34.47 ± 0.24
[2], 60 K | – | 41.86 ± 0.28
[2], 70 K | – | 48.71 ± 0.31
[2], 80 K | – | 55.17 ± 0.35
[2], 90 K | – | 61.41 ± 0.4
[2], 100 K | – | 67.71 ± 0.43
[2], 110 K | – | 74.28 ± 0.46
[2], 120 K | – | 79.92 ± 0.49
[2], 130 K | – | 85.48 ± 0.51
[2], 140 K | – | 91.03 ± 0.54
[2], 150 K | – | 96.6 ± 0.57
[2], 160 K | – | 102.2 ± 0.6
[2], 170 K | – | 107.8 ± 0.6
[2], 180 K | – | 113.5 ± 0.7
[2], 190 K | – | 119.2 ± 0.7
[2], 200 K | – | 125 ± 0.7
[2], 210 K | – | 130.9 ± 0.7
[2], 220 K | – | 136.9 ± 0.7
[2], 230 K | – | 143 ± 0.8
[2], 240 K | – | 149.2 ± 0.8
[2], 250 K | – | 155.5 ± 0.8
[2], 260 K | – | 162 ± 0.9
[2], 270 K | – | 168.5 ± 0.9
[2], 280 K | – | 175.1 ± 0.9
[2], 290 K | – | 181.7 ± 1
[2], 298.15 K | – | 187.2 ± 1
[2], 300 K | – | 188.5 ± 1
[2], 310 K | – | 195.5 ± 1.1
[2], 320 K | – | 202.7 ± 1.1
[2], 330 K | – | 210.3 ± 1.1
[2], 340 K | – | 218.6 ± 1.2
[2], 350 K | – | 227.1 ± 1.2
[2], 360 K | – | 235.5 ± 1.2
[2], 370 K | – | 244 ± 1.3
[2], 380 K | – | 252.5 ± 1.3
[2], 384 K | – | 255.9 ± 1.3
